Results reported in patent publication US20220002268A1, “NOVEL HETEROARYL-TRIAZOLE AND HETEROARYL-TETRAZOLE COMPOUNDS AS PESTICIDES” (Bayer Aktiengesellschaft, priority 2019, published 2022).

Legend:
Boophilus microplus = Boophilus microplus injection test; type: in vivo; settings: Rhipicephalus microplus, 168 h; 20 gg/animal, injection into abdomen, after 7 days; read-out: efficacy (infertile eggs)
Description: Boophilus microplus—Injection Test Solvent: dimethyl sulfoxide To produce a suitable preparation of active compound, 10 mg of active compound are dissolved in 0.5 ml solvent, and the concentrate is diluted with solvent to the desired concentration. Five adult engorged female ticks (Boophilus microplus) are injected with 1 μl compound solution into the abdomen. The ticks are transferred into replica plates and incubated in a climate chamber. After 7 days egg deposition of fertile eggs is monitored. Eggs where fertility is not visible are stored in a climate chamber till hatching after about 42 days. An efficacy of 100% means all eggs are infertile; 0% means all eggs are fertile.

Myzus persicae = Myzus persicae oral test; type: in vivo; settings: 120 h, after 5 days
Description: Myzus persicae—Oral Test Solvent: 100 parts by weight acetone
(§1) To produce a suitable preparation of active compound, 1 part by weight of active compound is mixed with the stated amount of solvent, and the concentrate is diluted with water to the desired concentration.
50 μl compound solution is filled in microtiter plates and 150 μl IPL41 insect medium (33%+15% sugar) is added to obtain a total volume of 200 μl per well. Afterwards the plates are sealed with parafilm through which a mixed population of the green peach aphid (Myzus persicae) can suck on the compound preparation.
After 5 days mortality in % is determined. 100% means all aphids have been killed and 0% means none of the aphids have been killed.

Ctenocephalides felis [1] = assay: Ctenocephalides felis oral test; type: in vivo; settings: 48 h, 100 ppm in cattle blood, after 2 days
Description: Ctenocephalides felis—Oral Test Solvent: dimethyl sulfoxide
To produce a suitable preparation of active compound, 10 mg of active compound are dissolved in 0.5 ml solvent, and the concentrate is diluted with cattle blood to the desired concentration.
Approximately 20 adult unfed cat fleas (Ctenocephalides felis) are placed in flea chambers. The blood chamber, sealed with parafilm on the bottom, are filled with cattle blood supplied with compound solution and placed on the gauze covered top of the flea chamber, so that the fleas are able to suck the blood. The blood chamber is heated to 37° C. whereas the flea chamber is kept at room temperature.
After 2 days mortality in % is determined. 100% means all the fleas have been killed; 0% means none of the fleas have been killed.

Spodoptera frugiperda = Spodoptera frugiperda spray test; type: in vivo; settings: 168 h, after 7 days
Description: Suodontera frugiuerda—Spray Test Solvent: 78.0 parts by weight acetone • 1.5 parts by weight dimethylformamide Emulsifier: alkylarylpolyglycol ether
(§2) To produce a suitable preparation of active compound, 1 part by weight of active compound is mixed with the stated amount of solvents and is diluted with water, containing an emulsifier concentration of 1000 ppm, to the desired concentration. Further test concentrations are prepared by dilution with emulsifier containing water.
Maize (Zea mays) leaf sections are sprayed with a preparation of the active ingredient of the desired concentration. Once dry, the leaf sections are infested with fall armyworm larvae (Spodoptera frugiperda).
After 7 days mortality in % is determined. 100% means all caterpillars have been killed and 0% means none of the caterpillars have been killed.

Phaedon cochleariae = Phaedon cochleariae spray test; type: in vivo; settings: 168 h, after 7 days
Description: Phaedon cochleariae—Spray Test Solvent: 78.0 parts by weight of acetone • • 1.5 parts by weight of dimethylformamide Emulsifier: alkylarylpolyglycol ether
as §2
Chinese cabbage (Brassica pekinensis) leaf disks are sprayed with a preparation of the active ingredient of the desired concentration. Once dry, the leaf disks are infested with mustard beetle larvae (Phaedon cochleariae).
After 7 days mortality in % is determined. 100% means all beetle larvae have been killed and 0% means none of the beetle larvae have been killed.

Meloidogyne incognita = Meloidogyne incognita test; type: in vivo; settings: 20 ppm, after 14 days
Description: Meloidogyne incognita—Test Solvent: 125.0 parts by weight of acetone
as §1
Vessels are filled with sand, a solution of the active ingredient, a suspension containing eggs and larvae of the southern root-knot nematode (Meloidogyne incognita) and salad seeds. The salad seeds germinate and the seedlings grow. Galls develop in the roots.
After 14 days the nematicidal activity is determined on the basis of the percentage of gall formation. 100% means no galls were found and 0% means the number of galls found on the roots of the treated plants was equal to that in untreated control plants.

Diabrotica balteata = Diabrotica balteata spray test; type: in vivo; settings: 168 h, 160 gg/well, after 7 days, read-out: efficacy (seedlings grown)
Description: Diabrotica balteata—Spray Test Solvent: 78.0 parts by weight of acetone • • 1.5 parts by weight of dimethylformamide Emulsifier: alkylarylpolyglycol ether
(§3) To produce a suitable preparation of active compound, 1 part by weight of active compound is mixed with the stated amount of solvent, and the concentrate is diluted with water, containing an emulsifier concentration of 1000 ppm, to the desired concentration. Further test concentrations are prepared by dilution with emulsifier containing water.
Soaked wheat seeds (Triticum aestivum) are placed in a multiple well plate filled with agar and some water and are incubated for 1 day to germinate (5 seeds per well). The germinated wheat seeds are sprayed with a test solution containing the desired concentration of the active ingredient. Afterwards each unit is infected with 10-20 larvae of the banded cucumber beetle (Diabrotica balteata).
After 7 days efficacy in % is determined. 100% means all the seedlings have grown up like in the untreated, uninfected control; 0% means none of the seedlings have grown.

Nezara viridula = Nezara viridula spray test; type: in vivo; settings: 96 h, after 4 days
Description: Nezara viridula—Spray Test Solvent: 78.0 parts by weight of acetone • • 1.5 parts by weight of dimethylformamide Emulsifier: alkylarylpolyglycol ether
as §3
Barley plants (Hordeum vulgare) infested with larvae of the southern green stink bug (Nezara viridula) are sprayed with a test solution containing the desired concentration of the active ingredient.
After 4 days mortality in % is determined. 100% means all the stink bugs have been killed; 0% means none of the stink bugs have been killed.

Nilaparvata lugens = Nilaparvata lugens spray test; type: in vivo; settings: 96 h, after 4 days
Description: Nilaparvata lugens—Spray Test Solvent: 78.0 parts by weight of acetone • • 1.5 parts by weight of dimethylformamide Emulsifier: alkylarylpolyglycol ether
as §2
Rice plants (Oryza sativa) are sprayed with a preparation of the active ingredient of the desired concentration and the plants are infested with the brown planthopper (Nilaparvata lugens).
After 4 days mortality in % is determined. 100% means all planthoppers have been killed and 0% means none of the planthoppers have been killed.

[2] = tested on: Aedes aegypti strain MONHEIM; assay: Aedes aegypti test (AEDSAE surface treatment & contact assay); type: in vivo; settings: surface concentration 20 mg/m^2, 30 minutes exposure, 24 hours after contact, read-out: efficacy (mortality)
Description: Aedes aegyti Test (AEDSAE Surface Treatment & Contact Assay) Solvent: Aceton+2000 ppm rapeseed oil methyl ester (RME)
In order to produce a sufficient, active ingredient containing solution it is necessary to solve the test compound in the solvent-mix (acetone at 2 mg/ml/RME 2000 ppm). This solution is pipetted onto a glazed tile and after evaporation of the acetone, adult mosquitoes of the species Aedes aegypti strain MONHEIM are placed onto the dried surface. The exposure time is 30 minutes.
(§4) Mortality in percent (%) is determined 24 hours after contact to the treated surface. 100% mortality means that all tested insects are dead, whereas 0% means that no insect died.

Rhipicephalus sanguineus = Rhipicephalus sanguineus in-vitro contact test, adult brown dog ticks; type: in vivo; settings: 5 gg/cm^2, after 48 hours
Description: (§5) 9 mg compound is solved in 1 ml acetone and diluted with acetone to the desired concentration. 250 μl of the test solution is filled in 25 ml glass test tubes and homogeneously distributed on the inner walls by rotation and tilting on a shaking device (2 h at 30 rpm). With a compound concentration of 900 ppm, an inner surface of 44.7 cm^2 and a homogeneous distribution, a dose of 5 μg/cm^2 is achieved.
After the solvent has evaporated, each test tube is filled with 5-10 adult brown dog ticks (Rhipicephalus sanguineus), closed with a perforated lid and incubated in a lying position at room temperature and relative humidity. After 48 hours efficacy is determined. The ticks are patted on the ground of the tubes and are incubated on a heating plate at 45-50° C. for at most 5 minutes. Immotile or uncoordinated moving ticks, which are not able to escape the heat by climbing upwards, are marked as dead or moribund.
An efficacy of 100% means all ticks are dead or moribund; 0% means no ticks are dead or moribund.

[3] = tested on: Anopheles funestus strain FUMOZ-R; assay: whole plant or invertebrate; type: in vivo; settings: read-out: efficacy (mortality)
Description: Anopheles funestus Test (ANPHFU Surface Treatment & Contact Assay) Solvent: Aceton+2000 ppm rapeseed oil methyl ester (RME)
In order to produce a sufficient, active ingredient containing solution it is necessary to solve the test compound in the solvent-mix (acetone at 2 mg/ml/RME 2000 ppm). This solution is pipetted onto a glazed tile and after evaporation of the acetone, adult mosquitoes of the species Anopheles funestus strain FUMOZ-R (Hunt et al., Med. Vet. Entomol. 2005 September; 19(3): 271-275) are placed onto the dried surface. The exposure time is 30 minutes.
as §4

Ctenocephalides felis [4] = assay: Ctenocephalides felis in-vitro contact test, adult cat flea; type: in vivo; settings: 5 μg/cm^2, after 48 hours
Description: as §5
After the solvent has evaporated, each test tube is filled with 5-10 adult cat fleas (Ctenocephalides felis), closed with a perforated lid and incubated in a lying position at room temperature and relative humidity. After 48 hours efficacy is determined. The fleas are patted on the ground of the tubes and are incubated on a heating plate at 45-50° C. for at most 5 minutes. Immotile or uncoordinated moving fleas, which are not able to escape the heat by climbing upwards, are marked as dead or moribund.
An efficacy of 100% means all fleas are dead or moribund; 0% means no fleas are dead or moribund.

[5] = tested on: Culex quinquefasciatus strain P00; assay: whole plant or invertebrate; type: in vivo; settings: read-out: efficacy (mortality)
Description: Culex quinquefasciatus Test (CULXFA Surface Treatment & Contact Assay) Solvent: Aceton+2000 ppm rapeseed oil methyl ester (RME)
In order to produce a sufficient, active ingredient containing solution it is necessary to solve the test compound in the solvent-mix (acetone at 2 mg/ml/RME 2000 ppm). This solution is pipetted onto a glazed tile and after evaporation of the acetone, adult mosquitoes of the species Culex quinquefasciatus strain P00 are placed onto the dried surface. The exposure time is 30 minutes.
as §4

Tetranychus urticae = Tetranychus urticae spray test OP-resistant; type: in vivo; settings: 144 h, after 6 days
Description: Tetranychus urticae—Spray Test OP-Resistant Solvent: 78.0 parts by weight acetone • 1.5 parts by weight dimethylformamide Emulsifier: alkylarylpolyglycol ether
as §2
French bean (Phaseolus vulgaris) leaf disks infected with all instars of the two spotted spidermite (Tetranychus urticae), are sprayed with a preparation of the active ingredient of the desired concentration.
After 6 days mortality in % is determined. 100% means all spider mites have been killed and 0% means none of the spider mites have been killed.

[6] = log P by HPLC on reversed phase, acidic range; type: physicochemical; settings: reversed phase HPLC column, LC-UV, 0.1% formic acid in water and acetonitrile
Description: (§6) Measurement of log P values was performed according to EEC directive 79/831 Annex V.A8 by HPLC (High Performance Liquid Chromatography) on reversed phase columns with the following methods. […] Calibration was done with straight-chain alkan-2-ones (with 3 to 16 carbon atoms) with known log P values (measurement of log P values using retention times with linear interpolation between successive alkanones). Lambda-max-values were determined using UV-spectra from 200 nm to 400 nm and the peak values of the chromatographic signals.

[7] = log P by HPLC on reversed phase, neutral range; type: physicochemical; settings: reversed phase HPLC column, LC-UV, 0.001 molar ammonium acetate solution in water and acetonitrile
Description: as §6, with “methods. Instrument(s): Agilent 1100 LC system, Agilent MSD system, HTS PAL; Waters IClass Acquity UPLC, SQD2 (MS), PDA (UV).” for “methods.”

| Structure (SMILES) | pest or weed control at 0.02 mg (Boophilus microplus) [%] | mortality at 20 ppm (Myzus persicae) [%] | mortality at 100 ppm (Ctenocephalides felis [1]) [%] | mortality at 500 g/ha (Spodoptera frugiperda) [%] | mortality at 500 g/ha (Phaedon cochleariae) [%] | pest or weed control at 160 µg/well (Diabrotica balteata) [%] | mortality at 20 mg/m2 [2] [%] | further results |
| --- | --- | --- | --- | --- | --- | --- | --- | --- |
| O=C(c1cc(Cl)cc(C(F)(F)F)c1)N(Cc1ncnn1-c1ncccn1)CC1CC1 [Example I-001, 3-Chloro-N-(cyclopropylmethyl)-N-{[1-(pyrimidin-2-yl)-1H-1,2,4-triazol-5-yl]methyl}-5-(trifluoromethyl)benzamide] | 100 | 100 | 95 | 100 | 100 | 100 | – | nematicidal activity (gall formation) (Meloidogyne incognita): 90% |
| O=C(c1cc(C(F)(F)F)cc(C(F)(F)F)c1)N(Cc1ncnn1-c1ncccn1)CC1CC1 [Example I-004] | 100 | 100 | 100 | 100 | 100 | 100 | 85 to 100 | mortality at 500 g/ha (Nezara viridula): 100%; mortality at 500 g/ha (Nilaparvata lugens): 100% |
| O=C(NCc1ncnn1-c1ncccn1)c1cc(Cl)cc(C(F)(F)F)c1 [Example I-005] | 100 | 100 | 100 | 100 | 100 | 100 | 85 to 100 | efficacy (ticks dead or moribund) (Rhipicephalus sanguineus): 100%; mortality at 4 mg/m2 [3]: 85 to 100%; mortality at 20 mg/m2 [3]: 85 to 100%; efficacy (fleas dead or moribund) (Ctenocephalides felis [4]): 100%; mortality at 4 mg/m2 [5]: 85 to 100%; mortality at 20 mg/m2 [5]: 85 to 100% |
| O=C(NC1(c2ncnn2-c2ncccn2)CC1)c1cc(Cl)cc(OC(F)(F)F)c1 [Example I-016] | – | – | – | – | – | – | – | mortality at 500 g/ha (Tetranychus urticae): 90% |
| c1cnc(-n2ncnc2CNCC2CC2)nc1 [a-001, 1-cyclopropyl-N-{[1-(pyrimidin-2-yl)-1H-1,2,4-triazol-5-yl]methyl}methanamine] | – | – | – | – | – | – | – | chromatographic logP [6]: 0.83; chromatographic logP [7]: 0.83 |
